Measured values as given in ChEMBL document CHEMBL5523691, “SAR study of N'-(Salicylidene)heteroarenecarbohydrazides as promising antifungal agents” (Bioorg Med Chem, 2024).
In brackets after ≈: the same amount, converted by molar mass. Activity calls are given as the source filed them. The rule behind the calls is not given here.

Legend:
[1] = test system: Cryptococcus neoformans; test: Antifungal activity against wild type Cryptococcus neoformans H99 assessed as inhibition of fungal growth incubated for 24 to 72 hrs by optical density based analysis; format: functional; details: time 24-72 hrs
[2] = Cytotoxicity against human A549 cells assessed as cell killing measured after 24 to 48 hrs by MTT assay; format: toxicity, cell-based; details: time 24-48 hrs, read-out: LD50 (the source's name)
[3] = test system: Cryptococcus neoformans; test: Fungicidal activity against wild type Cryptococcus neoformans H99 assessed as minimum concentration required to kill fungus measured after 12 hrs by time-kill assay; format: functional
[4] = Selectivity index, ratio of LD50 for human A549 cells to MIC80 for Cryptococcus neoformans H99; format: toxicity; details: read-out: Selectivity Index
[5] = test system: Cryptococcus neoformans; test: Fungicidal activity against wild type Cryptococcus neoformans H99 assessed as minimum concentration required to kill fungus measured after 48 hrs by time-kill assay; format: functional
[6] = test system: Cryptococcus neoformans; test: Fungistatic activity against wild type Cryptococcus neoformans H99 assessed as inhibition of fungal growth incubated for 12 to 48 hrs by time-kill assay; format: functional, organism-based; details: time 12-48 hrs
[7] = test system: Cryptococcus neoformans; test: Fungicidal activity against wild type Cryptococcus neoformans H99 assessed as minimum concentration required to kill fungus measured after 24 hrs by time-kill assay; format: functional
[8] = test system: Candida albicans; test: Antifungal activity against Candida albicans assessed as inhibition of fungal growth incubated for 24 to 72 hrs by optical density based analysis; format: functional; details: time 24-72 hrs
[9] = test system: Aspergillus fumigatus; test: Antifungal activity against Aspergillus fumigatus assessed as inhibition of fungal growth incubated for 24 to 72 hrs by optical density based analysis; format: functional; details: time 24-72 hrs

SMILES	MIC80 [1] [µg/mL]	CC50 [2] [µg/mL]	selectivity ratio [4]	other results
O=C(N/N=C/c1cc(Br)ccc1O)c1cc2cc(Br)ccc2o1	> 16	–	–	–
O=C(N/N=C/c1cc(Br)cc(Br)c1O)c1cc(Br)c(Br)o1	0.12 (≈ 0.22 µM)	16 (≈ 29.3 µM)	133	MFC100 [3]: 0.12 µg/mL (≈ 0.22 µM)
O=C(N/N=C/c1ccc(Br)cc1O)c1ncc(Br)cn1	> 16	–	–	–
O=C(N/N=C/c1cc(Br)cc(Br)c1O)c1csc2ccccc12	> 16	–	–	–
O=C(N/N=C/c1c(O)ccc2ccccc12)c1cncc(Br)c1	0.25 (≈ 0.675 µM)	2 (≈ 5.4 µM)	8	MFC100 [5]: 2 µg/mL (≈ 5.4 µM)
O=C(N/N=C/c1cc(Br)ccc1O)c1cncc(Br)c1	1 (≈ 2.51 µM)	4 (≈ 10 µM)	4	Activity [6]: Active
O=C(N/N=C/c1c(O)ccc2ccccc12)c1ccc(C(F)(F)F)s1	0.007 (≈ 0.0192 µM)	0.12 (≈ 0.329 µM)	17.1	MFC100 [7]: 0.25 µg/mL (≈ 0.686 µM)
O=C(N/N=C/c1ccc(Br)cc1O)c1cncc(Br)c1	1 (≈ 2.51 µM)	> 32	64	Activity [6]: Active
O=C(N/N=C/c1cc(Br)ccc1O)c1csc2ccccc12	> 16	–	–	–
O=C(N/N=C/c1cc(Br)cc(Br)c1O)c1cc2cc(Br)ccc2cn1	> 16	–	–	–
O=C(N/N=C/c1cc(Br)ccc1O)c1cc2cc(Br)ccc2cn1	> 16	–	–	–
O=C(N/N=C/c1c(O)ccc2ccccc12)c1ccc(C(F)(F)F)o1	0.5 (≈ 1.44 µM)	0.12 (≈ 0.345 µM)	0.24	MFC100 [5]: 2 µg/mL (≈ 5.74 µM)
CC[C@H](C)C[C@H](C)CCCCCCCCC(=O)N[C@H]1C[C@@H](O)[C@@H](NCCN)NC(=O)[C@@H]2[C@@H](O)CCN2C(=O)[C@H]([C@H](O)CCN)NC(=O)[C@H]([C@H](O)[C@@H](O)c2ccc(O)cc2)NC(=O)[C@@H]2C[C@@H](O)CN2C(=O)[C@H]([C@@H](C)O)NC1=O [CASPOFUNGIN]	> 32	–	–	MIC80 [8]: 0.5 µg/mL (≈ 0.457 µM)
C[C@@H](c1ncncc1F)[C@](O)(Cn1cncn1)c1ccc(F)cc1F [VORICONAZOLE]	–	–	–	MIC80 [9]: 0.125 µg/mL (≈ 0.358 µM)
O=C(N/N=C/c1cc(Br)cc(Br)c1O)c1cc2ccccc2cn1	> 16	–	–	–
O=C(N/N=C/c1cc(Br)ccc1O)c1ncc(Br)cn1	> 16	–	–	–
Cc1ccc2c(C)c(C(=O)N/N=C/c3cc(Br)cc(Br)c3O)oc2c1	> 16	–	–	–
O=C(N/N=C/c1c(O)ccc2ccccc12)c1cc(Br)c(Br)o1	0.12 (≈ 0.274 µM)	32 (≈ 73 µM)	267	Activity [6]: Active

SMILES	MIC80 [1] [µg/mL]	CC50 [2] [µg/mL]	selectivity ratio [4]	other results
OC(Cn1cncn1)(Cn1cncn1)c1ccc(F)cc1F [FLUCONAZOLE]	2 (≈ 6.53 µM)	–	–	MIC80 [8]: 1 µg/mL (≈ 3.27 µM)
O=C(N/N=C/c1cc(Br)cc(Br)c1O)c1cc(Br)c(Br)s1	1 (≈ 1.78 µM)	> 32	> 32	MFC100 [3]: 1 µg/mL (≈ 1.78 µM)
O=C(N/N=C/c1cc(Br)cc(Br)c1O)c1cc(Br)co1	0.06 (≈ 0.129 µM)	16 (≈ 34.3 µM)	267	Activity [6]: Active
O=C(N/N=C/c1cc(Br)cc(Br)c1O)c1ccc(C(F)(F)F)s1	0.06 (≈ 0.127 µM)	1 (≈ 2.12 µM)	16.6	MFC100 [5]: 0.25 µg/mL (≈ 0.53 µM)
O=C(N/N=C/c1ccc(Br)cc1O)c1cc[nH]c1	4 (≈ 13 µM)	–	–	–
O=C(N/N=C/c1c(O)ccc2ccccc12)c1ccc(Br)o1	0.12 (≈ 0.334 µM)	32 (≈ 89.1 µM)	267	MFC100 [5]: 1 µg/mL (≈ 2.78 µM)
O=C(N/N=C/c1cc(Br)cc(Br)c1O)c1cncc(Br)c1	> 16	–	–	–
O=C(N/N=C/c1cc(Br)cc(Br)c1O)c1ccc(C(F)(F)F)o1	2 (≈ 4.39 µM)	–	–	–
O=C(N/N=C/c1c(O)ccc2ccccc12)c1ncc(Br)cn1	2 (≈ 5.39 µM)	–	–	–
O=C(N/N=C/c1cc(Br)ccc1O)c1cccs1	8 (≈ 24.6 µM)	–	–	–
O=C(N/N=C/c1cc(Br)cc(Br)c1O)c1ccc[nH]1	2 (≈ 5.17 µM)	–	–	–
O=C(N/N=C/c1cc(Br)ccc1O)c1cc2ccccc2cn1	> 16	–	–	–
O=C(N/N=C/c1cc(Br)ccc1O)c1cc(Br)c[nH]1	> 16	–	–	–
O=C(N/N=C/c1cc(Br)cc(Br)c1O)c1ncc(Br)cn1	0.25 (≈ 0.522 µM)	–	–	Activity [6]: Active
O=C(N/N=C/c1cc(Br)ccc1O)c1cc(Br)c(Br)s1	0.12 (≈ 0.248 µM)	32 (≈ 66.3 µM)	267	MFC100 [7]: 0.25 µg/mL (≈ 0.518 µM)
C[C@@H]1[C@H](O)[C@@H](C)/C=C/C=C/C=C/C=C/C=C/C=C/C=C/[C@H](O[C@@H]2O[C@H](C)[C@@H](O)[C@H](N)[C@@H]2O)C[C@@H]2O[C@](O)(C[C@@H](O)C[C@@H](O)[C@H](O)CC[C@@H](O)C[C@@H](O)CC(=O)O[C@H]1C)C[C@H](O)[C@H]2C(=O)O [AMPHOTERICIN B]	0.5 (≈ 0.541 µM)	–	–	MIC80 [9]: 1 µg/mL (≈ 1.08 µM)
O=C(N/N=C/c1c(O)ccc2ccccc12)c1csc(Br)c1	0.25 (≈ 0.666 µM)	> 32	> 128	MFC100 [5]: 0.25 µg/mL (≈ 0.666 µM)
